Data reported in US4138554A, “7-[D-α-(4-Hydroxy-1,5-naphthyridine-3-carboxamido)-α-phenyl (and p-hydroxyphenyl)acetamido]-3-carbamoyloxymethyl-3-cephem-4-carboxylic acids” (priority 1977, dated 1979).
≈ marks a conversion by molar mass, not a printed value. Like-named read-outs stand apart in the source and are kept apart here.

Tests used:
Pseudomonas sp. = experiment: MIC by serial two-fold agar dilution (Mueller-Hinton agar), Pseudomonas sp.; assay type: cell-based; conditions: Pseudomonas sp. A20358, Table 6
Procedure: Minimum inhibitory concentrations (MIC) of cephalosporins in the present study were determined by serial two-fold agar dilution method using Steers' apparatus on Mueller-Hinton agar plate against 31 test organisms for the primary screening and also against 61 strains of Pseudomonas aeruginosa for the secondary evaluation.

Pseudomonas aeruginosa = experiment: MIC by agar dilution against 61 strains of Pseudomonas aeruginosa, secondary evaluation; assay type: cell-based
How it was run: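 Compounds were diluted two-fold serially into Mueller-Hinton agar, then organisms were applied using Steers' apparatus and MICs read. The primary panel comprised 31 test organisms, and the secondary evaluation 61 strains of P. aeruginosa.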

With `CC1(C)S[C@@H]2[C@H](NC(=O)C(c3ccccc3)S(=O)(=O)O)C(=O)N2[C@H]1C(=O)O` (some centres unmarked) [Sulbenicillin, sulbenicillin] as the compound, how does the MIC (Pseudomonas sp.) read?
Its MIC is 3.1 µg/mL (≈ 7.48 µM).

What about the MIC (Pseudomonas aeruginosa; BBRI Pa-No. 1, D15, Table 7) of the same compound?
Its MIC is 12.5 µg/mL (≈ 30.2 µM).

And the MIC (Pseudomonas aeruginosa; BBRI Pa-No. 3, 1449VA, Table 7)?
Its MIC is 12.5 µg/mL (≈ 30.2 µM).

And the MIC (Pseudomonas aeruginosa; BBRI Pa-No. 4, H9 D113, Table 7)?
The MIC was 12.5 µg/mL (≈ 30.2 µM).

And the MIC (Pseudomonas aeruginosa; BBRI Pa-No. 9, Yale, Table 7)?
The MIC was 12.5 µg/mL (≈ 30.2 µM).

What about the MIC (Pseudomonas aeruginosa; BBRI Pa-No. 14, Table 7) of the same compound?
Its MIC is 12.5 µg/mL (≈ 30.2 µM).

What about the MIC (Pseudomonas aeruginosa; BBRI Pa-No. 17, H6 D114, Table 2) of the same compound?
The MIC was 12.5 µg/mL (≈ 30.2 µM).

What about the MIC (Pseudomonas aeruginosa; BBRI Pa-No. 18, H8 D121, Table 2) of the same compound?
Its MIC is 12.5 µg/mL (≈ 30.2 µM).

And the MIC (Pseudomonas aeruginosa; BBRI Pa-No. 19, Table 2)?
The MIC was 12.5 µg/mL (≈ 30.2 µM).

And the MIC (Pseudomonas aeruginosa; BBRI Pa-No. 25, Table 2)?
Its MIC is 12.5 µg/mL (≈ 30.2 µM).

And the MIC (Pseudomonas aeruginosa; BBRI Pa-No. 26, Ps32, Table 2)?
The MIC was 12.5 µg/mL (≈ 30.2 µM).

And the MIC (Pseudomonas aeruginosa; BBRI Pa-No. 26, Ps32, Table 7)?
The MIC was 12.5 µg/mL (≈ 30.2 µM).

What about the MIC (Pseudomonas aeruginosa; BBRI Pa-No. 31, Table 2) of the same compound?
The MIC was 12.5 µg/mL (≈ 30.2 µM).

And the MIC (Pseudomonas aeruginosa; BBRI Pa-No. 34, Table 7)?
Its MIC is 12.5 µg/mL (≈ 30.2 µM).

What about the MIC (Pseudomonas aeruginosa; BBRI Pa-No. 60, Table 2) of the same compound?
The MIC was 12.5 µg/mL (≈ 30.2 µM).

And the MIC (Pseudomonas aeruginosa; BBRI Pa-No. 60, Table 7)?
Its MIC is 12.5 µg/mL (≈ 30.2 µM).

What about the MIC (Pseudomonas aeruginosa; Pseudomonas aeruginosa) of the same compound?
Its MIC is 12.5 µg/mL (≈ 30.2 µM).

And the MIC (Pseudomonas aeruginosa; Pseudomonas aeruginosa, 61 strains of Pseudomonas aeruginosa, Table 7, read-out: Geometric Mean of MIC)?
Its MIC is 24 µg/mL (≈ 57.9 µM).

What about the MIC (Pseudomonas aeruginosa; Pseudomonas aeruginosa, BBRI Pa-No. 1, D15, Table 2, read-out: MIC) of the same compound?
The MIC was 25 µg/mL (≈ 60.3 µM).

What about the MIC (Pseudomonas aeruginosa; Pseudomonas aeruginosa, BBRI Pa-No. 2, VA, Table 7, read-out: MIC) of the same compound?
The MIC was 25 µg/mL (≈ 60.3 µM).

What about the MIC (Pseudomonas aeruginosa; Pseudomonas aeruginosa, BBRI Pa-No. 3, 1449VA, Table 2, read-out: MIC) of the same compound?
The MIC was 6.3 µg/mL (≈ 15.2 µM).

What about the MIC (Pseudomonas aeruginosa; Pseudomonas aeruginosa, BBRI Pa-No. 4, H9 D113, Table 2, read-out: MIC) of the same compound?
The MIC was 25 µg/mL (≈ 60.3 µM).

And the MIC (Pseudomonas aeruginosa; Pseudomonas aeruginosa, BBRI Pa-No. 5, M4865KC, Table 2, read-out: MIC)?
The MIC was 25 µg/mL (≈ 60.3 µM).

What about the MIC (Pseudomonas aeruginosa; Pseudomonas aeruginosa, BBRI Pa-No. 5, N4865KC, Table 7, read-out: MIC) of the same compound?
Its MIC is 6.3 µg/mL (≈ 15.2 µM).

And the MIC (Pseudomonas aeruginosa; Pseudomonas aeruginosa, BBRI Pa-No. 6, No. 5, Table 2, read-out: MIC)?
The MIC was > 100 µg/mL.

What about the MIC (Pseudomonas aeruginosa; Pseudomonas aeruginosa, BBRI Pa-No. 6, No. 5, Table 7, read-out: MIC) of the same compound?
The MIC was 100 µg/mL (≈ 241 µM).

And the MIC (Pseudomonas aeruginosa; Pseudomonas aeruginosa, BBRI Pa-No. 7, Table 2, read-out: MIC)?
The MIC was 25 µg/mL (≈ 60.3 µM).

And the MIC (Pseudomonas aeruginosa; Pseudomonas aeruginosa, BBRI Pa-No. 7, Table 7, read-out: MIC)?
The MIC was 25 µg/mL (≈ 60.3 µM).

What about the MIC (Pseudomonas aeruginosa; Pseudomonas aeruginosa, BBRI Pa-No. 8, Table 2, read-out: MIC) of the same compound?
The MIC was 25 µg/mL (≈ 60.3 µM).

What about the MIC (Pseudomonas aeruginosa; Pseudomonas aeruginosa, BBRI Pa-No. 8, Table 7, read-out: MIC) of the same compound?
The MIC was 25 µg/mL (≈ 60.3 µM).

What about the MIC (Pseudomonas aeruginosa; Pseudomonas aeruginosa, BBRI Pa-No. 9, Yale, Table 2, read-out: MIC) of the same compound?
The MIC was 25 µg/mL (≈ 60.3 µM).

What about the MIC (Pseudomonas aeruginosa; Pseudomonas aeruginosa, BBRI Pa-No. 10, Table 2, read-out: MIC) of the same compound?
Its MIC is > 100 µg/mL.

What about the MIC (Pseudomonas aeruginosa; Pseudomonas aeruginosa, BBRI Pa-No. 10, Table 7, read-out: MIC) of the same compound?
The MIC was > 100 µg/mL.

What about the MIC (Pseudomonas aeruginosa; Pseudomonas aeruginosa, BBRI Pa-No. 11, Table 2, read-out: MIC) of the same compound?
The MIC was 25 µg/mL (≈ 60.3 µM).

And the MIC (Pseudomonas aeruginosa; Pseudomonas aeruginosa, BBRI Pa-No. 11, Table 7, read-out: MIC)?
Its MIC is 25 µg/mL (≈ 60.3 µM).

What about the MIC (Pseudomonas aeruginosa; Pseudomonas aeruginosa, BBRI Pa-No. 12, Table 2, read-out: MIC) of the same compound?
Its MIC is 50 µg/mL (≈ 121 µM).

And the MIC (Pseudomonas aeruginosa; Pseudomonas aeruginosa, BBRI Pa-No. 12, Table 7, read-out: MIC)?
Its MIC is 25 µg/mL (≈ 60.3 µM).

What about the MIC (Pseudomonas aeruginosa; Pseudomonas aeruginosa, BBRI Pa-No. 14, Table 2, read-out: MIC) of the same compound?
Its MIC is 25 µg/mL (≈ 60.3 µM).

What about the MIC (Pseudomonas aeruginosa; Pseudomonas aeruginosa, BBRI Pa-No. 15, Table 2, read-out: MIC) of the same compound?
Its MIC is 100 µg/mL (≈ 241 µM).

What about the MIC (Pseudomonas aeruginosa; Pseudomonas aeruginosa, BBRI Pa-No. 15, Table 7, read-out: MIC) of the same compound?
Its MIC is 50 µg/mL (≈ 121 µM).

What about the MIC (Pseudomonas aeruginosa; Pseudomonas aeruginosa, BBRI Pa-No. 16, No. 130, Table 2, read-out: MIC) of the same compound?
The MIC was 6.3 µg/mL (≈ 15.2 µM).

And the MIC (Pseudomonas aeruginosa; Pseudomonas aeruginosa, BBRI Pa-No. 16, No. 130, Table 7, read-out: MIC)?
Its MIC is 3.1 µg/mL (≈ 7.48 µM).

What about the MIC (Pseudomonas aeruginosa; Pseudomonas aeruginosa, BBRI Pa-No. 17, H6 D114, Table 7, read-out: MIC) of the same compound?
Its MIC is 25 µg/mL (≈ 60.3 µM).

What about the MIC (Pseudomonas aeruginosa; Pseudomonas aeruginosa, BBRI Pa-No. 18, H8 D121, Table 7, read-out: MIC) of the same compound?
The MIC was 3.1 µg/mL (≈ 7.48 µM).

And the MIC (Pseudomonas aeruginosa; Pseudomonas aeruginosa, BBRI Pa-No. 19, Table 7, read-out: MIC)?
Its MIC is 6.3 µg/mL (≈ 15.2 µM).

What about the MIC (Pseudomonas aeruginosa; Pseudomonas aeruginosa, BBRI Pa-No. 20, Table 2, read-out: MIC) of the same compound?
Its MIC is 25 µg/mL (≈ 60.3 µM).

What about the MIC (Pseudomonas aeruginosa; Pseudomonas aeruginosa, BBRI Pa-No. 20, Table 7, read-out: MIC) of the same compound?
The MIC was 25 µg/mL (≈ 60.3 µM).

And the MIC (Pseudomonas aeruginosa; Pseudomonas aeruginosa, BBRI Pa-No. 21, Table 2, read-out: MIC)?
Its MIC is 25 µg/mL (≈ 60.3 µM).

What about the MIC (Pseudomonas aeruginosa; Pseudomonas aeruginosa, BBRI Pa-No. 21, Table 7, read-out: MIC) of the same compound?
Its MIC is 25 µg/mL (≈ 60.3 µM).

And the MIC (Pseudomonas aeruginosa; Pseudomonas aeruginosa, BBRI Pa-No. 23, Table 2, read-out: MIC)?
Its MIC is 50 µg/mL (≈ 121 µM).

And the MIC (Pseudomonas aeruginosa; Pseudomonas aeruginosa, BBRI Pa-No. 23, Table 7, read-out: MIC)?
Its MIC is 25 µg/mL (≈ 60.3 µM).

What about the MIC (Pseudomonas aeruginosa; Pseudomonas aeruginosa, BBRI Pa-No. 24, Table 2, read-out: MIC) of the same compound?
The MIC was 100 µg/mL (≈ 241 µM).

And the MIC (Pseudomonas aeruginosa; Pseudomonas aeruginosa, BBRI Pa-No. 24, Table 7, read-out: MIC)?
Its MIC is > 100 µg/mL.

What about the MIC (Pseudomonas aeruginosa; Pseudomonas aeruginosa, BBRI Pa-No. 25, Table 7, read-out: MIC) of the same compound?
The MIC was 6.3 µg/mL (≈ 15.2 µM).

What about the MIC (Pseudomonas aeruginosa; Pseudomonas aeruginosa, BBRI Pa-No. 28, CPH1C527/72, Table 7, read-out: MIC) of the same compound?
The MIC was 50 µg/mL (≈ 121 µM).

What about the MIC (Pseudomonas aeruginosa; Pseudomonas aeruginosa, BBRI Pa-No. 28, CPH10527/72, Table 2, read-out: MIC) of the same compound?
Its MIC is 50 µg/mL (≈ 121 µM).

And the MIC (Pseudomonas aeruginosa; Pseudomonas aeruginosa, BBRI Pa-No. 29, D122, Table 2, read-out: MIC)?
Its MIC is 25 µg/mL (≈ 60.3 µM).

What about the MIC (Pseudomonas aeruginosa; Pseudomonas aeruginosa, BBRI Pa-No. 29, D122, Table 7, read-out: MIC) of the same compound?
The MIC was 25 µg/mL (≈ 60.3 µM).

What about the MIC (Pseudomonas aeruginosa; Pseudomonas aeruginosa, BBRI Pa-No. 30, Table 2, read-out: MIC) of the same compound?
Its MIC is 25 µg/mL (≈ 60.3 µM).

What about the MIC (Pseudomonas aeruginosa; Pseudomonas aeruginosa, BBRI Pa-No. 30, Table 7, read-out: MIC) of the same compound?
The MIC was 25 µg/mL (≈ 60.3 µM).

And the MIC (Pseudomonas aeruginosa; Pseudomonas aeruginosa, BBRI Pa-No. 31, Table 7, read-out: MIC)?
Its MIC is 3.1 µg/mL (≈ 7.48 µM).

And the MIC (Pseudomonas aeruginosa; Pseudomonas aeruginosa, BBRI Pa-No. 32, Table 2, read-out: MIC)?
Its MIC is 25 µg/mL (≈ 60.3 µM).

What about the MIC (Pseudomonas aeruginosa; Pseudomonas aeruginosa, BBRI Pa-No. 32, Table 7, read-out: MIC) of the same compound?
The MIC was 25 µg/mL (≈ 60.3 µM).

What about the MIC (Pseudomonas aeruginosa; Pseudomonas aeruginosa, BBRI Pa-No. 33, Table 2, read-out: MIC) of the same compound?
Its MIC is 100 µg/mL (≈ 241 µM).

And the MIC (Pseudomonas aeruginosa; Pseudomonas aeruginosa, BBRI Pa-No. 33, Table 7, read-out: MIC)?
Its MIC is 25 µg/mL (≈ 60.3 µM).
